Results taken from ChEMBL document CHEMBL5244269, “Improving metabolic stability and removing aldehyde oxidase liability in a 5-azaquinazoline series of IRAK4 inhibitors” (Bioorg Med Chem, 2020).

How the values were obtained:
[1] = target: T1, Interleukin-1 receptor-associated kinase 4 (Homo sapiens, UniProt Q9NWZ3); assay: Inhibition of IRAK4 (unknown origin) in presence of ATP by enzymatic assay
T1 sequence (Q9NWZ3 whole entry): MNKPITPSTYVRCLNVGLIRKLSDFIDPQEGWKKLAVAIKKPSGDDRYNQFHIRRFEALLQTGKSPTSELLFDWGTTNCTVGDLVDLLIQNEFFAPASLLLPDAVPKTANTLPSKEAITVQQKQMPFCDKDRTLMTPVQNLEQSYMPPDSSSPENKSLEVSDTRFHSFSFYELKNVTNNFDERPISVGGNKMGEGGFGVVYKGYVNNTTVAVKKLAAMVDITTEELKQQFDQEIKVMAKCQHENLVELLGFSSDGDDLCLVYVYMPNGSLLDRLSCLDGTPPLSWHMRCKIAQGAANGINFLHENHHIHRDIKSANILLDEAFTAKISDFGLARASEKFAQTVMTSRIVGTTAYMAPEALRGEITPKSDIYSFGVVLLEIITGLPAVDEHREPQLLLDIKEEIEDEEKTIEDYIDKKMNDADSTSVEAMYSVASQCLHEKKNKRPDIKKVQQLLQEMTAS

[2] = target: T1, Interleukin-1 receptor-associated kinase 4; assay: Inhibition of IRAK4 (unknown origin) phosphorylation by cell based assay
[3] = Metabolic stability in human liver microsomes assessed as intrinsic clearance; assay type: ADME, Microsome; settings: read-out: CLH
[4] = Metabolic stability in human hepatocytes assessed as intrinsic clearance measured per 10^6 cells; assay type: ADME, cell-based, Hepatocyte; settings: read-out: CLH
[5] = Metabolic stability in human cytosol assessed as intrinsic clearance; assay type: ADME, subcellular
[6] = Lipophilicity, LogD at pH 7.4 of the compound by shake flask method; assay type: physicochemical; settings: buffer
[7] = Apparent permeability across apical to basolateral side in human Caco-2 cells measured for 360 mins by liquid scintillation counting based analysis; assay type: ADME, cell-based
[8] = Efflux ratio of apparent permeability basolateral to apical side over apical to basolateral side in human Caco-2 cells measured for 360 mins by liquid scintillation counting based analysis; assay type: ADME, cell-based

| SMILES | IC50 [1] | IC50 [2] | microsomal CLint [3] | hepatocyte CLint [4] | microsomal CLint [5] | logD [6] | Papp A→B at 6 h [7] | efflux ratio at 6 h [8] |
| --- | --- | --- | --- | --- | --- | --- | --- | --- |
| Cc1ncc(-c2nc3c(OC4(C)CC4)nc(Nc4cnn([C@@H]5C[C@@H]6C[C@H]5CN6C)c4)nc3cc2F)cn1 | 0.004 µM | 0.31 µM | 15 µL/min/mg | < 1 µL/min/1e6 cells | – | 1.7 | – | – |
| Cn1cc(Nc2nc(NC3(C)CC3)c3nc(CC#N)ccc3n2)cn1 | 0.002 µM | 0.11 µM | – | 71 µL/min/1e6 cells | – | 2.7 | – | – |
| Cn1cc(Nc2nc(NC3COC3)c3nc(CC#N)ccc3n2)cn1 | 0.447 µM | 9.4 µM | – | – | – | 1.2 | – | – |
| CN1CCC(n2cc(Nc3nc(OC4(C)CC4)c4nc(-c5ccnnc5)ccc4n3)cn2)CC1 | 0.001 µM | 0.13 µM | 48 µL/min/mg | 8.4 µL/min/1e6 cells | – | 1.7 | – | – |
| Cc1ncc(-c2ccc3nc(Nc4cnn(C5CCN(C)CC5)c4)nc(OC4(C)CC4)c3n2)c(C)n1 | 0.007 µM | 0.26 µM | 23 µL/min/mg | 3.4 µL/min/1e6 cells | 2.2 µL/min/mg | 2.1 | – | – |
| CN1CCC(n2cc(Nc3nc(OC4(C)CC4)c4nc(-c5cn(C)cn5)ccc4n3)cn2)CC1 | 0.73 µM | 6.8 µM | 14 µL/min/mg | – | – | 1.8 | – | – |
| Cc1ncc(-c2ccc3nc(Nc4cnn(C5CCN(C)CC5)c4)nc(OC4(C)CC4)c3n2)cn1 | 0.0018 µM | 0.14 µM | 52 µL/min/mg | 170 µL/min/1e6 cells | 69 µL/min/mg | 2.2 | – | – |
| CN1CCC(n2cc(Nc3nc(OC4(C)CC4)c4nc(C5CC5)ccc4n3)cn2)CC1 | 0.002 µM | 0.038 µM | 37 µL/min/mg | 4.6 µL/min/1e6 cells | – | 2.8 | – | – |
| CN1CC2(CC(n3cc(Nc4nc(OC5(C)CC5)c5nc(C6CC6)c(F)cc5n4)cn3)C2)C1 | 0.003 µM | 0.3 µM | < 3 µL/min/mg | < 1 µL/min/1e6 cells | – | 2.6 | – | – |
| Cc1ncc(-c2nc3c(OC4(C)CC4)nc(Nc4cnn(C5CC6(C5)CN(C)C6)c4)nc3cc2F)cn1 | 0.003 µM | 0.22 µM | < 3 µL/min/mg | < 1 µL/min/1e6 cells | – | 1.4 | – | – |
| CC(=O)N1CCC(n2cc(Nc3nc(OC4CCOCC4)c4nc(CC#N)ccc4n3)cn2)CC1 | 0.032 µM | 2 µM | 5 µL/min/mg | – | – | 1.2 | – | – |
| Cn1cc(Nc2nc(NC3CCOCC3)c3nc(CC#N)ccc3n2)cn1 | 0.139 µM | 2.1 µM | – | – | – | 1.7 | – | – |
| N#CCc1ccc2nc(Nc3cnn(C4CCOCC4)c3)nc(NC3CCOCC3)c2n1 | 0.015 µM | 0.57 µM | 110 µL/min/mg | – | – | 1.9 | – | – |
| Cc1ncncc1-c1ccc2nc(Nc3cnn(C4CCN(C)CC4)c3)nc(OC3(C)CC3)c2n1 | 0.005 µM | 0.17 µM | 44 µL/min/mg | 4.7 µL/min/1e6 cells | 4.8 µL/min/mg | 1.9 | – | – |
| CN1CCC(n2cc(Nc3nc(OC4(C)CC4)c4nc(C(=O)N(C)C)ccc4n3)cn2)CC1 | 0.013 µM | 0.67 µM | < 4.5 µL/min/mg | 1.7 µL/min/1e6 cells | – | 1.2 | 15 nm/s | 17 |
| Cc1ncc(-c2nc3c(NC4(C)CC4)nc(Nc4cnn(C5CC6(C5)CN(C)C6)c4)nc3cc2F)cn1 | 0.0006 µM | 0.054 µM | 11 µL/min/mg | < 1 µL/min/1e6 cells | – | 2.1 | – | – |
| CN1CCC(n2cc(Nc3nc(OC4(C)CC4)c4nc(-c5ccn(C)n5)ccc4n3)cn2)CC1 | 0.49 µM | 21 µM | 18 µL/min/mg | – | – | 2.1 | – | – |

Further lines, results first:

| IC50 [1] | IC50 [2] | microsomal CLint [3] | hepatocyte CLint [4] | microsomal CLint [5] | logD [6] | Papp A→B at 6 h [7] | efflux ratio at 6 h [8] | SMILES |
| --- | --- | --- | --- | --- | --- | --- | --- | --- |
| 0.001 µM | 0.029 µM | 88 µL/min/mg | 14 µL/min/1e6 cells | 20 µL/min/mg | – | – | – | CN1CCC(n2cc(Nc3nc(OC4(C)CC4)c4nc(-c5cncnc5)c(F)cc4n3)cn2)CC1 |
| 0.211 µM | 3.5 µM | – | – | – | 1.5 | – | – | Cn1cc(Nc2nc(N[C@@H]3CCOC3)c3nc(CC#N)ccc3n2)cn1 |
| 0.019 µM | 0.51 µM | 13 µL/min/mg | < 1 µL/min/1e6 cells | – | 1.8 | – | – | CN1CCC(n2cc(Nc3nc(OC4(C)CC4)c4nc(-c5cn(C)nn5)ccc4n3)cn2)CC1 |
| 0.001 µM | 0.12 µM | 130 µL/min/mg | – | – | 2.6 | – | – | CN1CCC(n2cc(Nc3nc(OC4(C)CC4)c4nc(-c5cccnc5)ccc4n3)cn2)CC1 |
| 0.015 µM | 0.48 µM | 53 µL/min/mg | 5.5 µL/min/1e6 cells | < 0.5 µL/min/mg | 2.2 | – | – | Cc1ncncc1-c1nc2c(OC3(C)CC3)nc(Nc3cnn(C4CCN(C)CC4)c3)nc2cc1F |
| 0.113 µM | 2.6 µM | – | – | – | 1.6 | – | – | Cn1cc(Nc2nc(N[C@H]3CCOC3)c3nc(CC#N)ccc3n2)cn1 |
| 0.012 µM | 0.67 µM | 26 µL/min/mg | – | – | 1.4 | 41 nm/s | 86 | CC(=O)N1CCC(n2cc(Nc3nc(NC4CCOCC4)c4nc(CC#N)ccc4n3)cn2)CC1 |
| 0.022 µM | 0.49 µM | – | – | – | 2.1 | – | – | Cn1cc(Nc2nc(NC3CC3)c3nc(CC#N)ccc3n2)cn1 |
| 0.051 µM | 0.57 µM | – | – | – | 2.4 | – | – | CC(C)Nc1nc(Nc2cnn(C)c2)nc2ccc(CC#N)nc12 |
| 0.003 µM | 0.2 µM | < 3 µL/min/mg | 4 µL/min/1e6 cells | – | 2.2 | – | – | Cc1nc2c(OC3(C)CC3)nc(Nc3cnn(C4CC5(C4)CN(C)C5)c3)nc2cc1F |
| 0.032 µM | 1.1 µM | 14 µL/min/mg | – | – | 1.5 | – | – | Cc1ncc(-c2nc3c(OC4(C)CC4)nc(Nc4cnn([C@@H]5C[C@H]6C[C@@H]5CN6C)c4)nc3cc2F)cn1 |
